Reference: patent US11299478B2, “2-cyanopyrimidin-4-yl carbamate or urea derivative or salt thereof, and pharmaceutical composition including same” (HANLIM PHARMACEUTICAL CO., LTD., priority 2018, dated 2022)

Assays:
Format in all cases: biochemical
[1] = molecular target: T1, cathepsin K (Homo sapiens, UniProt P43235); assay: Inhibitory activity assay against cathepsin K (enzyme assay); conditions: Z-Phe-Arg-AMC 10 μM, enzyme 1 nM, pH 5.5, 30 minutes
T1 sequence (P43235 115-329): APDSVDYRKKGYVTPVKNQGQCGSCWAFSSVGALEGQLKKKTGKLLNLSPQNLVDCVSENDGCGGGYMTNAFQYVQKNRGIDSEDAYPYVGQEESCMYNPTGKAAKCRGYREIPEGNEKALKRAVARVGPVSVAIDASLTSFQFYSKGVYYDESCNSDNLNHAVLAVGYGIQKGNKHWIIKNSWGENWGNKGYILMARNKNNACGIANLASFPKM
How it was run: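 IC50 by 4-parameter logistic fit of fluorescence (ex 355 nm, em 460 nm) after 30 min reaction. Compound tested at 10 final concentrations from 10.0 μM down to 0.000508 μM against 1 nM enzyme and 10 μM Z-Phe-Arg-AMC, in MES buffer pH 5.5 with DTT, EDTA, Triton X-100 and 10% DMSO.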

[2] = molecular target: cathepsin B (Homo sapiens, UniProt P07858); assay: Inhibitory activity assay against cathepsin B (enzyme assay); conditions: Z-Arg-Arg-AMC 40 μM, enzyme 1 nM, pH 6.0, 90 minutes
How it was run: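 Reaction run 90 min in MES buffer pH 6.0 containing DTT, EDTA, Polysorbate 20 and 10% DMSO, using 40 μM fluorogenic Z-Arg-Arg-AMC and 1 nM cathepsin B. Ten compound levels from 10.0 μM; AMC fluorescence at ex 340/em 460 nm fitted to a 4-parameter logistic for IC50.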

[3] = molecular target: cathepsin L (Homo sapiens, UniProt P07711); assay: Inhibitory activity assay against cathepsin L (enzyme assay); conditions: Z-Phe-Arg-AMC 2 μM, enzyme 3 nM, pH 5.5, 30 minutes
How it was run: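 IC50s came from 4-parameter logistic fits of ten concentrations (10.0 μM down to 0.000508 μM). Reaction: 30 min, 3 nM enzyme, 2 μM Z-Phe-Arg-AMC, pH 5.5 MES buffer containing DTT, EDTA, Polysorbate 20 and 10% DMSO; fluorescence read 340/460 nm.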

[4] = molecular target: cathepsin S (Homo sapiens, UniProt P25774); assay: Inhibitory activity assay against cathepsin S (enzyme assay); conditions: Z-Phe-Arg-AMC 70 μM, enzyme 3 nM, pH 6.5, 45 minutes
How it was run: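 Ten-point compound titration (10.0 to 0.000508 μM final) reacted 45 min with 3 nM cathepsin S and 70 μM Z-Phe-Arg-AMC in MES 50 mM pH 6.5, DTT 2.5 mM, EDTA 1.0 mM, BSA 0.001%, DMSO 10%. AMC release read at 340/460 nm; IC50 from four-parameter logistic fit.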

cathepsin L, sequence (P07711 114-333, species assumed): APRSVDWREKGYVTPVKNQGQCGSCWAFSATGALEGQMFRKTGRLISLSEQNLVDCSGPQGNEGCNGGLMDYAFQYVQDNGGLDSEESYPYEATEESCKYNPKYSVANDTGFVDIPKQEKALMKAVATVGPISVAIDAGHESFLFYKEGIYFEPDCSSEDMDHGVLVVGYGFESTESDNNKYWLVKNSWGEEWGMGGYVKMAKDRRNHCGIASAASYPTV
cathepsin S, sequence (P25774 115-331, species assumed): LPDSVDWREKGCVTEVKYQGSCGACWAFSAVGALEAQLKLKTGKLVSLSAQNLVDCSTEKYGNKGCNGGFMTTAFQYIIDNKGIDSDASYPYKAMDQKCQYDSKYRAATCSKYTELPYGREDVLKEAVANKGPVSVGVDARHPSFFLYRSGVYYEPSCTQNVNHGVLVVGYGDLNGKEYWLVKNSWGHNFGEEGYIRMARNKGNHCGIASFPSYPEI

IC50 [1] [nM] | IC50 [2] [nM] | IC50 [3] [nM] | IC50 [4] [nM] | Structure (SMILES)
15.9 | > 10000 | > 10000 | 3930 | N#Cc1nccc(C2(NC(=O)Nc3ccc(-c4ccc(CCC(=O)O)cc4)cc3)CCCCC2)n1 [Example 131, 3-(4′-(3-(1-(2-cyanopyrimidin-4-yl)cyclohexyl)ureido)-[1,1′-biphenyl]-4-yl)propanoic acid]
15.9 | > 10000 | > 10000 | > 10000 | N#Cc1nccc(C2(NC(=O)Nc3ccc(I)cc3)CCCCC2)n1 [Example 132, 1-(1-(2-cyanopyrimidin-4-yl)cyclohexyl)-3-(4-iodophenyl)urea]
63.7 | > 10000 | > 10000 | > 10000 | N#Cc1nccc(C2(NC(=O)Nc3ccc(Br)c(C(F)(F)F)c3)CCCCC2)n1 [Example 133, 1-(4-bromo-3-(trifluoromethyl)phenyl)-3-(1-(2-cyanopyrimidin-4-yl)cyclohexyl)urea]
5.3 | > 10000 | > 10000 | > 10000 | N#Cc1nccc(C2(NC(=O)Nc3ccc(Br)cc3F)CCCCC2)n1 [Example 134, 1-(4-bromo-2-fluorophenyl)-3-(1-(2-cyanopyrimidin-4-yl)cyclohexyl)urea]
24.5 | > 10000 | > 10000 | > 10000 | N#Cc1nccc(C2(NC(=O)Nc3ccc(I)c(C(F)(F)F)c3)CCCCC2)n1 [Example 136, 1-(1-(2-cyanopyrimidin-4-yl)cyclohexyl)-3-(4-iodo-3-(trifluoromethyl)phenyl)urea]
38.2 | > 10000 | > 10000 | 6220 | N#Cc1nccc(C2(NC(=O)Nc3ccc(I)c(F)c3)CCCCC2)n1 [Example 137, 1-(1-(2-cyanopyrimidin-4-yl)cyclohexyl)-3-(3-fluoro-4-iodophenyl)urea]
5.8 | > 10000 | 4200 | ≥ 10000 | CN1CCN(c2ccc(NC(=O)NC3(c4ccnc(C#N)n4)CCCCC3)cc2)CC1 [Example 138, 1-(1-(2-cyanopyrimidin-4-yl)cyclohexyl)-3-(4-(4-methylpiperazin-1-yl)phenyl)urea]
12.2 | > 10000 | 7030 | > 10000 | N#Cc1nccc(C2(NC(=O)Nc3ccc(N4CCOCC4)cc3)CCCCC2)n1 [Example 139, 1-(1-(2-cyanopyrimidin-4-yl)cyclohexyl)-3-(4-morpholinophenyl)urea]
21.5 | > 10000 | 6570 | > 10000 | N#Cc1nccc(C2(NC(=O)Nc3ccc(N4CCNCC4)cc3)CCCCC2)n1 [Example 140, 1-(1-(2-cyanopyrimidin-4-yl)cyclohexyl)-3-(4-(piperazin-1-yl)phenyl)urea]
4.5 | > 10000 | > 10000 | > 10000 | CN(C)C1CCN(c2ccc(NC(=O)NC3(c4ccnc(C#N)n4)CCCCC3)cc2)CC1 [Example 141, 1-(1-(2-cyanopyrimidin-4-yl)cyclohexyl)-3-(4-(4-(dimethylamino)piperidin-1-yl)phenyl)urea]
17.9 | > 10000 | > 10000 | > 10000 | CC(C)N1CCN(c2ccc(NC(=O)NC3(c4ccnc(C#N)n4)CCCCC3)cc2)CC1 [Example 142, 1-(1-(2-cyanopyrimidin-4-yl)cyclohexyl)-3-(4-(4-isopropylpiperazin-1-yl)phenyl)urea]
2.3 | > 10000 | > 10000 | > 10000 | CC(C)(C)N1CCN(c2ccc(NC(=O)NC3(c4ccnc(C#N)n4)CCCCC3)cc2)CC1 [Example 143, 1-(4-(4-(tert-butyl)piperazin-1-yl)phenyl)-3-(1-(2-cyanopyrimidin-4-yl)cyclohexyl)urea]
18.3 | > 10000 | > 10000 | > 10000 | N#Cc1nccc(C2(NC(=O)Nc3ccc(N4CCN(C5CC5)CC4)cc3)CCCCC2)n1 [Example 144, 1-(1-(2-cyanopyrimidin-4-yl)cyclohexyl)-3-(4-(4-cyclopropylpiperazin-1-yl)phenyl)urea]
3.9 | > 10000 | > 10000 | > 10000 | CCN1CCN(c2ccc(NC(=O)NC3(c4ccnc(C#N)n4)CCCCC3)cc2)CC1 [Example 146, 1-(1-(2-cyanopyrimidin-4-yl)cyclohexyl)-3-(4-(4-ethylpiperazin-1-yl)phenyl)urea]
5.2 | > 10000 | > 10000 | 7930 | COCCNC(=O)c1ccc(-c2ccc(NC(=O)NC3(c4ccnc(C#N)n4)CCCCC3)cc2)cc1 [Example 147, 4′-(3-(1-(2-cyanopyrimidin-4-yl)cyclohexyl)ureido)-N-(2-methoxyethyl)-[1,1′-biphenyl]-4-carboxamide]
16.8 | > 10000 | > 10000 | 8580 | N#Cc1nccc(C2(NC(=O)Nc3ccc(-c4ccc(S(=O)(=O)NC5CC5)cc4)cc3)CCCCC2)n1 [Example 148, 4′-(3-(1-(2-cyanopyrimidin-4-yl)cyclohexyl)ureido)-N-cyclopropyl-[1,1′-biphenyl]-4-sulfonamide]
6.4 | > 10000 | > 10000 | 7300 | N#Cc1nccc(C2(NC(=O)Nc3ccc(-c4ccc(C(=O)NC5CC5)cc4)cc3)CCCCC2)n1 [Example 149, 4′-(3-(1-(2-cyanopyrimidin-4-yl)cyclohexyl)ureido)-N-cyclopropyl-[1,1′-biphenyl]-4-carboxamide]
6.6 | > 10000 | 8920 | > 10000 | N#Cc1nccc(C2(NC(=O)Nc3ccc(-c4ccc(C(=O)N5CCCC5)c(Cl)c4)cc3)CCCCC2)n1 [Example 150, 1-(3′-chloro-4′-(pyrrolidin-1-carbonyl)-[1,1′-biphenyl]-4-yl)-3-(1-(2-cyanopyrimidin-4-yl)cyclohexyl)urea]
2 | > 10000 | > 10000 | > 10000 | CC(=O)NCc1ccc(-c2ccc(NC(=O)NC3(c4ccnc(C#N)n4)CCCCC3)cc2)cc1 [Example 151, N-((4′-(3-(1-(2-cyanopyrimidin-4-yl)cyclohexyl)ureido)-[1,1′-biphenyl]-4-yl)methyl)acetamide]
0.2 | 4800 | 6720 | > 10000 | CN(C)CCOc1ccc(-c2ccc(NC(=O)NC3(c4ccnc(C#N)n4)CCCCC3)cc2)cc1 [Example 153, 1-(1-(2-cyanopyrimidin-4-yl)cyclohexyl)-3-(4′-(2-(dimethylamino)ethoxy)-[1,1′-biphenyl]-4-yl)urea]
0.3 | 3210 | 4280 | > 10000 | CC(C)N1CCN(c2ccc(-c3ccc(NC(=O)NC4(c5ccnc(C#N)n5)CCCCC4)cc3)cc2)CC1 [Example 154, 1-(1-(2-cyanopyrimidin-4-yl)cyclohexyl)-3-(4′-(4-isopropylpiperazin-1-yl)-[1,1′-biphenyl]-4-yl)urea]
2 | 7340 | > 10000 | > 10000 | CC(=O)N1CCN(c2ccc(-c3ccc(NC(=O)NC4(c5ccnc(C#N)n5)CCCCC4)cc3)cc2)CC1 [Example 155, 1-(4′(4-acetylpiperazin-1-yl)-[1,1′-biphenyl]-4-yl)-3-(1-(2-cyanopyrimidin-4-yl)cyclohexyl)urea]
